Source: patent US8415351B2 (priority 2007, dated 2013)

Tests used:
[1] = test system: genotype 1a-H77 subgenomic replicon cell line; assay: microbe, parasite or virus in culture; format: cell-based, HCV; conditions: Hepatitis C virus, read-out: EC50 1a
[2] = target: T1, HCV polymerase 1B (Δ21 NS5B, BK) (Hepatitis C virus genotype 1b, UniProt P26663); assay: biochemical
T1 construct: 20 to 50 nM Δ21 NS5B
Outline: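 Δ21 NS5B (genotype 1b, BK […]) preincubated 15 min RT with inhibitor, 2 mM MnCl2, pH 7.4, 60–125 μM GTP; started with 20 μM CTP/ATP, 1 μM 3H-UTP, 5 nM template RNA, run 2–4 h RT. Spermine-precipitated RNA filter-captured, scintillation counted; IC50 from tight-binding (Morrison) fit.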

[3] = target: T2, HCV polymerase 1A (Δ21 NS5B, H77) (Hepatitis C virus genotype 1a, UniProt P27958); assay: biochemical; conditions: IC50 1a
T2 construct: 20 to 50 nM Δ21 NS5B
Outline: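 Radiometric assay with Δ21 NS5B (H77): 20 μM CTP, 20 μM ATP, 1 μM ^3H-UTP, 5 nM template RNA, 2–4 h at room temperature. RNA precipitated with spermine, filter-captured and counted. IC50 from non-linear fit of retained cpm vs inhibitor concentration (tight-binding equation).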

[4] = test system: genotype 1b-Con1 subgenomic replicon cell line; assay: microbe, parasite or virus in culture; format: cell-based, HCV; conditions: Hepatitis C virus, read-out: EC50 1b

T2 sequence (P27958 2421-2990, stated change not applied): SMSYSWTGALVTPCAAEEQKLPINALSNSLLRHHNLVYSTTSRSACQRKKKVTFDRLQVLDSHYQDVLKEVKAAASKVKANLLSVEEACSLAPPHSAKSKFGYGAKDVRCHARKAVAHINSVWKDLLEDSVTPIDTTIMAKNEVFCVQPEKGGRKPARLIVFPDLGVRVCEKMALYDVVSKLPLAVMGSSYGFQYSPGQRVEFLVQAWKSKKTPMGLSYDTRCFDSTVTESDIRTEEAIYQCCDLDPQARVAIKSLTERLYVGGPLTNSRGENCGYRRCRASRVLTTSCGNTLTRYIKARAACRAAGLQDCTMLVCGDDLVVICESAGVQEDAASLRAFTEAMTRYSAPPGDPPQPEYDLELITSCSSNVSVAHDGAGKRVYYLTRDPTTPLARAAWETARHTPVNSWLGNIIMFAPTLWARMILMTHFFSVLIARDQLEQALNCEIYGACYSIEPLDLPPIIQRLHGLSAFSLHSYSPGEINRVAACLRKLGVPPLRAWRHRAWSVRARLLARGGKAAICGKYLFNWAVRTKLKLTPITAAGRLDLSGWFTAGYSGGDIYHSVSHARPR
T1 sequence (P26663 2420-2989, stated change not applied): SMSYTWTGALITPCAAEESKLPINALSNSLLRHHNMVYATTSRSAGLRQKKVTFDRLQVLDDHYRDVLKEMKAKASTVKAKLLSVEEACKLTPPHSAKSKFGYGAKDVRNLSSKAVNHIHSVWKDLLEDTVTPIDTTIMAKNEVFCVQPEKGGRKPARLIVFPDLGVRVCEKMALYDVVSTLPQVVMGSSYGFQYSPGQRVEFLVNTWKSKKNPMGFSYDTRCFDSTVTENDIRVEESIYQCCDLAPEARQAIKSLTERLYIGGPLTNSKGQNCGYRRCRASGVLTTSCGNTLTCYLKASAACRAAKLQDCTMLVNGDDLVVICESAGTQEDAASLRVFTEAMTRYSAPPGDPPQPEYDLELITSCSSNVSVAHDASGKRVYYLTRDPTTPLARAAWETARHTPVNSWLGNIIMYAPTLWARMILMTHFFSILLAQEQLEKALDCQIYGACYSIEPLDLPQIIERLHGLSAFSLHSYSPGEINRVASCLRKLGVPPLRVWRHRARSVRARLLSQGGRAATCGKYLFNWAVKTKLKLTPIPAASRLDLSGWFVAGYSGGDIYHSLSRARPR

| SMILES | EC50 [1] [µM] | IC50 [2] [µM] | IC50 [3] [µM] | EC50 [4] [µM] |
| --- | --- | --- | --- | --- |
| COc1c(-c2ccc3c(c2)CC[C@@H]3CNS(C)(=O)=O)cc(-n2ccc(=O)[nH]c2=O)cc1C(C)(C)C (single isomer, unassigned) [IB-L0-2.9] | < 0.01 | < 0.01 | < 0.01 | < 0.01 |
| COc1c(-c2ccc3c(c2)CC[C@H]3CNS(C)(=O)=O)cc(-n2ccc(=O)[nH]c2=O)cc1C(C)(C)C (single isomer, unassigned) [IB-L0-2.15] | 0.1 to 1 | 0.01 to 0.1 | < 0.01 | 0.01 to 0.1 |
| COc1c(-c2ccc3c(c2)CC[C@@H]3C(C)(C)NS(C)(=O)=O)cc(-n2ccc(=O)[nH]c2=O)cc1C(C)(C)C (single isomer, unassigned) [IB-L0-2.22] | 0.1 to 1 | 0.01 to 0.1 | 0.01 to 0.1 | 0.01 to 0.1 |
| COc1c(-c2ccc3c(c2)CC[C@H]3C(C)(C)NS(C)(=O)=O)cc(-n2ccc(=O)[nH]c2=O)cc1C(C)(C)C (single isomer, unassigned) [IB-L0-2.37] | > 1 | 0.1 to 1 | 0.1 to 1 | 0.1 to 1 |
| COc1c(-c2ccc(/C=N/NS(C)(=O)=O)cc2)cc(N2CCC(=O)NC2=O)cc1C(C)(C)C [IA-L0-1.1, (E)-N′-((3′-tert-butyl-5′-(2,4-dioxotetrahydropyrimidin-1(2H)-yl)-2′-methoxybiphenyl-4-yl)methylene)methanesulfonohydrazide] | 0.1 to 1 | 0.01 to 0.1 | < 0.01 | < 0.01 |
| COc1c(-c2ccc(/C(C)=N/NS(C)(=O)=O)cc2)cc(N2CCC(=O)NC2=O)cc1C(C)(C)C [IA-L0-1.2, (E)-N′-(1-(3′-tert-butyl-5′-(2,4-dioxotetrahydropyrimidin-1(2H)-yl)-2′-methoxybiphenyl-4-yl)ethylidene)methanesulfonohydrazide] | 0.1 to 1 | 0.01 to 0.1 | 0.01 to 0.1 | 0.01 to 0.1 |
| COc1c(-c2cc(F)c(/C=N/NS(C)(=O)=O)c(F)c2)cc(N2CCC(=O)NC2=O)cc1C(C)(C)C [IA-L0-1.3, (E)-N′-((3′-tert-butyl-5′-(2,4-dioxotetrahydropyrimidin-1(2H)-yl)-3,5-difluoro-2′-methoxybiphenyl-4-yl)methylene)methanesulfonohydrazide] | 0.1 to 1 | 0.1 to 1 | 0.1 to 1 | 0.1 to 1 |
| COc1c(-c2ccc(/C=N/NS(C)(=O)=O)c(F)c2)cc(N2CCC(=O)NC2=O)cc1C(C)(C)C [IA-L0-1.4, (E)-N′-((3′-tert-butyl-5′-(2,4-dioxotetrahydropyrimidin-1(2H)-yl)-3-fluoro-2′-methoxybiphenyl-4-yl)methylene)methanesulfonohydrazide] | 0.1 to 1 | 0.01 to 0.1 | 0.01 to 0.1 | 0.01 to 0.1 |
| COc1ccc(-c2cc(N3CCC(=O)NC3=O)cc(C(C)(C)C)c2OC)cc1/C=N/NS(C)(=O)=O [IA-L0-1.5, (E)-N′-((3′-tert-butyl-5′-(2,4-dioxotetrahydropyrimidin-1(2H)-yl)-2′,4-dimethoxy-biphenyl-3-yl)methylene)methanesulfonohydrazide] | > 1 | 0.1 to 1 | 0.1 to 1 | > 1 |
| COc1c(-c2ccc(/C=N/NS(C)(=O)=O)c(F)c2F)cc(N2CCC(=O)NC2=O)cc1C(C)(C)C [IA-L0-1.6, (E)-N′-((3′-tert-butyl-5′-(2,4-dioxotetrahydropyrimidin-1(2H)-yl)-2,3-difluoro-2′-methoxybiphenyl-4-yl)methylene)methanesulfonohydrazide] | 0.1 to 1 | 0.01 to 0.1 | 0.01 to 0.1 | 0.01 to 0.1 |
| COc1c(-c2cccc(/C=N/NS(C)(=O)=O)c2)cc(N2CCC(=O)NC2=O)cc1C(C)(C)C [IA-L0-1.7, (E)-N′-((3′-tert-butyl-5′-(2,4-dioxotetrahydropyrimidin-1(2H)-yl)-2′-methoxybiphenyl-3-yl)methylene)methanesulfonohydrazide] | > 1 | 0.1 to 1 | > 1 | > 1 |
| COc1c(-c2cccc(/C(C)=N\NS(C)(=O)=O)c2)cc(N2CCC(=O)NC2=O)cc1C(C)(C)C [IA-L0-1.8, (Z)—N′-(1-(3′-tert-butyl-5′-(2,4-dioxotetrahydropyrimidin-1(2H)-yl)-2′-methoxybiphenyl-3-yl)ethylidene)methanesulfonohydrazide] | > 1 | 0.1 to 1 | 0.1 to 1 | > 1 |
| COc1c(C(=O)Nc2ccc(NS(C)(=O)=O)c([N+](=O)[O-])c2)cc(N2CCC(=O)NC2=O)cc1C(C)(C)C [IA-L3-1.87, 3-tert-butyl-5-(2,4-dioxotetrahydropyrimidin-1(2H)-yl)-2-methoxy-N-(4-(methylsulfonamido)-3-nitrophenyl)benzamide] | – | 0.1 to 1 | > 1 | > 1 |
| COc1c(C(=O)Nc2ccc(NS(C)(=O)=O)nc2)cc(N2CCC(=O)NC2=O)cc1C(C)(C)C [IA-L3-1.99, 3-tert-butyl-5-(2,4-dioxotetrahydropyrimidin-1(2H)-yl)-2-methoxy-N-(6-(methylsulfonamido)pyridin-3-yl)benzamide] | – | 0.1 to 1 | 0.01 to 0.1 | 0.1 to 1 |
| COc1c(C(=O)Nc2ccc(N)nc2)cc(N2CCC(=O)NC2=O)cc1C(C)(C)C [IA-L3-1.100, N-(6-aminopyridin-3-yl)-3-tert-butyl-5-(2,4-dioxotetrahydropyrimidin-1(2H)-yl)-2-methoxy benzamide] | – | 0.1 to 1 | > 1 | > 1 |
| COc1c(C(=O)Nc2ccc(NS(C)(=O)=O)cn2)cc(N2CCC(=O)NC2=O)cc1C(C)(C)C [IA-L3-1.102, 3-tert-butyl-5-(2,4-dioxotetrahydropyrimidin-1(2H)-yl)-2-methoxy-N-(5-(methylsulfonamido)pyridin-2-yl)benzamide] | – | 0.1 to 1 | 0.1 to 1 | 0.1 to 1 |
| COc1c(C(=O)Nc2ccc(NS(C)(=O)=O)cc2)cc(N2CCC(=O)NC2=O)cc1C(C)C [IA-L3-1.111, 5-(2,4-dioxotetrahydropyrimidin-1(2H)-yl)-3-isopropyl-2-methoxy-N-(4-(methylsulfonamido)phenyl)benzamide] | – | 0.1 to 1 | 0.01 to 0.1 | 0.1 to 1 |
| COc1c(C(=O)Nc2ccc(NS(=O)(=O)CCO)cc2)cc(N2CCC(=O)NC2=O)cc1C(C)(C)C [IA-L3-1.122, 3-tert-butyl-5-(2,4-dioxotetrahydropyrimidin-1(2H)-yl)-N-(4-(2-hydroxyethylsulfonamido)phenyl)-2-methoxybenzamide] | – | 0.01 to 0.1 | 0.01 to 0.1 | 0.01 to 0.1 |
| COc1c(NC(=O)c2ccc(NS(C)(=O)=O)cc2)cc(N2CCC(=O)NC2=O)cc1C(C)(C)C [IA-L4-1.9, N-(3-tert-butyl-5-(2,4-dioxotetrahydropyrimidin-1(2H)-yl)-2-methoxyphenyl)-4-(methylsulfonamido)benzamide] | – | 0.01 to 0.1 | 0.01 to 0.1 | 0.01 to 0.1 |
| COc1c(C#Cc2ccc(NS(C)(=O)=O)cc2Cl)cc(-n2ccc(=O)[nH]c2=O)cc1C(C)(C)C [IB-L2-1.2, N-(4-((3-tert-butyl-5-(2,4-dioxo-3,4-dihydropyrimidin-1(2H)-yl)-2-methoxyphenyl)ethynyl)-3-chlorophenyl)methanesulfonamide] | – | 0.01 to 0.1 | < 0.01 | < 0.01 |
| COc1c(C#Cc2cc(F)c(NS(C)(=O)=O)c(F)c2)cc(-n2ccc(=O)[nH]c2=O)cc1C(C)(C)C [IB-L2-1.4, N-(4-((3-tert-butyl-5-(2,4-dioxo-3,4-dihydropyrimidin-1(2H)-yl)-2-methoxyphenyl)ethynyl)-2,6-difluorophenyl)methanesulfonamide] | – | 0.01 to 0.1 | 0.01 to 0.1 | 0.1 to 1 |
| COC(=O)c1cc(NS(C)(=O)=O)ccc1C#Cc1cc(-n2ccc(=O)[nH]c2=O)cc(C(C)(C)C)c1OC [IB-L2-1.7, methyl 2-((3-tert-butyl-5-(2,4-dioxo-3,4-dihydropyrimidin-1(2H)-yl)-2-methoxyphenyl)-ethynyl)-5-(methylsulfonamido)benzoate] | – | 0.01 to 0.1 | < 0.01 | < 0.01 |
| COc1c(C#Cc2cnc(NS(C)(=O)=O)cn2)cc(-n2ccc(=O)[nH]c2=O)cc1C(C)(C)C [IB-L2-1.9, N-(5-((3-tert-butyl-5-(2,4-dioxo-3,4-dihydropyrimidin-1(2H)-yl)-2-methoxyphenyl)ethynyl)-pyrazin-2-yl)methanesulfonamide] | > 1 | 0.01 to 0.1 | 0.1 to 1 | – |
| COc1c(C#Cc2ccc(NS(C)(=O)=O)cc2C(C)(C)C)cc(-n2ccc(=O)[nH]c2=O)cc1C(C)(C)C [IB-L2-1.10, N-(3-tert-butyl-4-((3-tert-butyl-5-(2,4-dioxo-3,4-dihydropyrimidin-1(2H)-yl)-2-methoxy-phenyl)ethynyl)phenyl)methanesulfonamide] | – | 0.01 to 0.1 | < 0.01 | 0.01 to 0.1 |
| COc1c(C(=O)Nc2ccc(NS(C)(=O)=O)cc2)cc(-n2c(C)cc(=O)[nH]c2=O)cc1C(C)(C)C [IB-L3-1.3, 3-tert-butyl-2-methoxy-5-(6-methyl-2,4-dioxo-3,4-dihydropyrimidin-1(2H)-yl)-N-(4-(methylsulfonamido)phenyl)benzamide] | – | > 1 | 0.1 to 1 | 0.1 to 1 |
